Experimental data reported in publication PMC7337056, “Structural and biochemical characterization of the pleckstrin homology domain of the RhoGEF P-Rex2 and its regulation by PIP3” (Journal of Structural Biology: X, 2018).
Numbering of substitutions follows the chain as printed.

Legend:
Format in all cases: binding
P-Rex2 PH domain [1] = biological target: T1, P-Rex2 PH domain (Homo sapiens, UniProt Q70Z35); experiment: differential scanning fluorimetry (SYPRO orange)
T1 construct: gene PREX2; PH domain, residues 219-364 for assays (219-377 for crystal 6BNM); 10xHis-MBP tag removed with TEV; E. coli Rosetta (DE3) pLysS
T1 sequence (Q70Z35 219-364): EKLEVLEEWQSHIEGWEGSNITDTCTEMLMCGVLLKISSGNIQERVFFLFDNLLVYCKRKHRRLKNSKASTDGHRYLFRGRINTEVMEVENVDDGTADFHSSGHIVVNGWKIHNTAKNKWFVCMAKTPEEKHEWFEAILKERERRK

P-Rex2 PH domain [2] = biological target: T2, P-Rex2 PH domain (Homo sapiens, UniProt Q70Z35, K337A); experiment: differential scanning fluorimetry (SYPRO orange); conditions: 50 mM HEPES pH 8, 150 mM NaCl, 2 mM DTT; 1 mM ligand
T2 construct: gene PREX2; PH domain, residues 219-364 for assays (219-377 for crystal 6BNM); 10xHis-MBP tag removed with TEV; E. coli Rosetta (DE3) pLysS
T2 sequence (Q70Z35 219-364 K337A): T1 sequence (Q70Z35 219-364) with K119A

P-Rex1 PH domain [3] = biological target: T3, P-Rex1 PH domain (Homo sapiens, UniProt Q8TCU6, K368A); experiment: differential scanning fluorimetry (SYPRO orange); conditions: 50 mM HEPES pH 8, 150 mM NaCl, 2 mM DTT; 1 mM ligand
T3 construct: gene PREX1; PH domain, residues 245-408; 10xHis-MBP tag removed with TEV; E. coli Rosetta (DE3) pLysS

P-Rex2 PH domain [4] = biological target: T4, P-Rex2 PH domain (Homo sapiens, UniProt Q70Z35, K254A); experiment: differential scanning fluorimetry (SYPRO orange); conditions: 50 mM HEPES pH 8, 150 mM NaCl, 2 mM DTT; 1 mM ligand
T4 construct: gene PREX2; PH domain, residues 219-364 for assays (219-377 for crystal 6BNM); 10xHis-MBP tag removed with TEV; E. coli Rosetta (DE3) pLysS
T4 sequence (Q70Z35 219-364 K254A): T1 sequence (Q70Z35 219-364) with K36A

P-Rex2 PH domain [5] = biological target: T1, P-Rex2 PH domain; experiment: isothermal titration calorimetry; conditions: 20 mM HEPES pH 8, 150 mM NaCl, 25 °C
P-Rex1 PH domain [6] = biological target: T5, P-Rex1 PH domain (Homo sapiens, UniProt Q8TCU6, K280A); experiment: differential scanning fluorimetry (SYPRO orange); conditions: 50 mM HEPES pH 8, 150 mM NaCl, 2 mM DTT; 1 mM ligand
T5 construct: gene PREX1; PH domain, residues 245-408; 10xHis-MBP tag removed with TEV; E. coli Rosetta (DE3) pLysS
T5 sequence (Q8TCU6 245-408 K280A): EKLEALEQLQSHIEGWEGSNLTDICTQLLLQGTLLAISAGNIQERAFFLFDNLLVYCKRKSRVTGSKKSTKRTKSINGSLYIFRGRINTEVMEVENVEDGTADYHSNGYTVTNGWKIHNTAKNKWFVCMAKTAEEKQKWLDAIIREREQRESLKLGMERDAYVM

T3 sequence (Q8TCU6 245-408 K368A): as the sequence (Q8TCU6 245-408 K280A) above, with A36K, K124A counted along it

ΔTm at 1000 µM (P-Rex2 PH domain [1]): 11 °C | Kd (P-Rex2 PH domain [5]): 240 ± 140 nM
Structure (SMILES): O=P(O)(O)OC1[C@H](O)[C@H](OP(=O)(O)O)C(OP(=O)(O)O)[C@H](OP(=O)(O)O)[C@H]1O (stereo partly drawn) [Ins(1,3,4,5)P4, D-myo-Inositol-1,3,4,5-tetraphosphate]
ΔTm at 1 mM (P-Rex2 PH domain [2]): mutation of any one of the PIP3-binding residues drastically reduces the temperature shift | ΔTm at 1 mM (P-Rex1 PH domain [3]): P-Rex1 variants display the same trends in binding deficiency | ΔTm at 1 mM (P-Rex2 PH domain [4]): mutation of any one of the PIP3-binding residues drastically reduces the temperature shift | ΔTm at 1 mM (P-Rex1 PH domain [6]): P-Rex1 variants display the same trends in binding deficiency
